In patent US10448635B2, “Modulation of plant biology” (FBSCIENCES HOLDINGS, INC., priority 2012, dated 2019):

Columns and labels:
Format in all cases: in vivo
plants and/or seeds = assay: Summary observations: CPPA treated with cation exchange resin, Fe alone and Fe added back; conditions: seed treatment
Description: The plant biological response was generally observed to be better when a stoichiometric amount of Fe was added back (relative to the amount of CPPA or its TOC value) rather than an excess amount. […] These observations support the premise that the combination of CPPA and Fe are synergistic in their interaction and biological effect on plants and/or seeds.

[1] = test system: tomato plants (Lycopersicon es.); assay: Experiment Fe-4: foliar CPPA, Fe (FeSO4) or CPPA and Fe on tomato plants; conditions: for Leaf # / Vigor / Plt. Ht. / Plt. Wt. / Root Wt. / Shoot Wt.: tomato, foliar
Description: Experiment Fe-4: The purpose of this experiment was to determine if the addition of low levels of iron to a CPPA sample containing lower than typical amounts of iron (e.g., Fe/TOC=0.135) would increase the biological response of plants. Nominal Fe/TOC ratios for CPPA range from 0.10 to 0.28 but the optimum ratio for “as-is” samples of CPPA, as determined in the previous experiments, is between 0.2 and 0.25. Thus, for this experiment, non-agrochemically effective amounts of iron were combined with CPPA samples. Tomato plants (Lycopersicon es.) were produced from seed and transplanted into 3 inch by 3 inch pots. There were 16 treatments plus an untreated check with 20 replicates per treatment arranged in a Randomized Complete Block design. Pots were treated with water (UTC), or CPPA only (3 different rates), Fe only (3 different rates), or CPPA and Fe at each of the rates. The CPPA rates corresponded to 260, 520, and 1040 mg organic carbon (TOC) per hectare and the Fe rates corresponded to 130, 260, and 520 mg Fe per hectare. All pots were treated by foliar application immediately after transplanting. Ten days after the application, ten of the plants were harvested and assessed for vigor, leaf number, plant height, plant weight, root weight, and shoot weight. […] Additional application rates of CPPA and Fe were evaluated with similar synergistic results observed for the combination of CPPA with amounts of iron. Twenty days after transplanting, the remaining ten plants in each treatment were assessed.

[2] = test system: tomato plants (Lycopersicon es.); assay: Experiment Salt-1: CPPA/NaCl composition, foliar application; conditions: NaCl 2600 mg/ha
Description: Experiment Salt-1: […] There were a total of 5 treatments plus an untreated check, each with 10 replicates per treatment arranged in a randomized block design. […] Each treatment comprised samples treated with CPPA alone, salt alone, or CPPA plus salt. Two rates of CPPA were used; the first was equivalent to 520 mg of TOC per hectare and a second equivalent to 1040 mg of TOC per hectare. Salt was applied at a rate equivalent to 2.6 g of salt per hectare. All treatments were diluted with water to provide a final spray volume equivalent to 208 lit per hectare, made with a spray bottle, with just enough spray solution to wet the leaf surface of each plant. Ten days after treatment the plants were assessed for vigor, leaf number, plant height, plant weight, root weight, shoot weight, and leaf conductance using a SPAD meter and are summarized in Table 8 and depicted in FIGS. 10-16.

[3] = 0 mg TOC/ha + 130 mg Fe/ha, 20 days after application
[4] = 0 mg TOC/ha + 520 mg Fe/ha, 10 days after application
[5] = 0 mg TOC/ha + 520 mg Fe/ha, 20 days after application
[6] = foliar at transplanting, 10 days after treatment

SMILES: O=S(=O)([O-])[O-].[Fe+2] [Fe, FeSO4]
- root development (plants and/or seeds): negative effect
- shoot development (plants and/or seeds): negative effect
- biological effect on plant, root and shoot weights versus UTC ([1]; Fe alone 520 mg Fe/ha, 20 days): apparent slightly negative biological effect
- Leaf # [1, 3]: 6.3 ab
- Vigor [1, 3]: 2.1 c
- Leaf # [1, 4]: 6.6 ab
- Plt. Ht. [1, 4]: 4.2 b
- Plt. Wt. [1, 4]: 4.9 b
- Root Wt. [1, 4]: 1.4 bc
- Shoot Wt. [1, 4]: 3.6 b
- Vigor [1, 4]: 3.8 b
- Leaf # [1, 5]: 5.1 b
- Plt. Ht. [1, 5]: 6.3 b
- Plt. Wt. [1, 5]: 4.5 b
- Root Wt. [1, 5]: 1.6 bc
- Shoot Wt. [1, 5]: 2.9 cd
- Vigor [1, 5]: 2.5 c

SMILES: [Cl-].[Na+] [NaCl]
- Leaf # [2, 6]: 5.3 e
- Plt. Ht. [2, 6]: 3.5 b
- Plt. Wt. [2, 6]: 2.7 c
- Root Wt. [2, 6]: 0.8 jc
- Shoot Wt. [2, 6]: 2.0 c
- Vigor [2, 6]: 2.4 b
- phytotoxicity of salt treatment alone ([2]; foliar, 10 days): significant amount of phytotoxicity
- SPAD ([2]; leaf conductance using a SPAD meter, foliar at transplanting, 10 days after treatment): 24.2 b
